Test results from ChEMBL document CHEMBL1201862, “PubChem BioAssay data set” (2004).
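Five concentrations, 48 hours, 96-well plates. At the GI50, growth is halved.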 The source made the active and inactive calls. Rule as the data show it: active = GI50 up to about 1.1 µM and inactive = higher.

Key:
Test in all cases: NCI anticancer screen, dose series, 48 h
BT-549 = system: BT-549
A498 = system: A498
CAKI-1 = system: CAKI-1
786-0 = system: 786-0
A549 = system: A549
NCI-H522 = system: NCI-H522
U-251 = system: U-251
EKVX = system: EKVX
SF-539 = system: SF-539
PC-3 = system: PC-3
MDA-MB-231 = system: MDA-MB-231
K562 = system: K562
MOLT-4 = system: MOLT-4
HOP-92 = system: HOP-92
NCI-H226 = system: NCI-H226
MDA-MB-435 = system: MDA-MB-435
MDA-N = system: MDA-N
Malme-3M = system: Malme-3M
OVCAR-3 = system: OVCAR-3
SK-MEL-28 = system: SK-MEL-28

Measured: GI50

O=C1C2CCCCC2C(=O)N1n1c(Cc2ccc(Cl)cc2)n[nH]c1=O (configuration not stated)
inactive: BT-549 > 100 µM | A498 > 100 µM | CAKI-1 > 100 µM | 786-0 > 100 µM | A549 > 100 µM | NCI-H522 > 100 µM | U-251 > 100 µM | EKVX > 100 µM | SF-539 > 100 µM | PC-3 > 100 µM | MDA-MB-231 > 100 µM | K562 > 100 µM | MOLT-4 > 100 µM | HOP-92 > 100 µM | NCI-H226 > 100 µM | MDA-MB-435 > 100 µM | MDA-N > 100 µM | Malme-3M > 100 µM | OVCAR-3 > 100 µM

COc1cc(CC2C(=O)OCC2Cc2ccc(OC)c(OC)c2)ccc1O (configuration not stated)
inactive: BT-549 > 55.2 µM | A498 > 100 µM | CAKI-1 > 100 µM | 786-0 > 100 µM | A549 > 71.8 µM | NCI-H522 > 100 µM | U-251 > 100 µM | EKVX > 27.8 µM | SF-539 > 100 µM | PC-3 99.1 µM | MDA-MB-231 74.3 µM | MOLT-4 4.76 µM | HOP-92 29.5 µM | SK-MEL-28 > 100 µM | NCI-H226 > 100 µM | MDA-MB-435 > 100 µM | MDA-N > 100 µM | Malme-3M > 100 µM | OVCAR-3 > 91.8 µM

c1ccc2cc(CN3CCC(C4CCN(Cc5ccc6ccccc6c5)CC4)CC3)ccc2c1
active: K562 0.692 µM
inactive: BT-549 10.3 µM | A498 10.8 µM | CAKI-1 5.53 µM | 786-0 2.45 µM | A549 4.2 µM | NCI-H522 1.89 µM | U-251 2.33 µM | EKVX 8.24 µM | SF-539 1.8 µM | PC-3 9.42 µM | MDA-MB-231 4.82 µM | MOLT-4 3.41 µM | HOP-92 4.1 µM | SK-MEL-28 1.87 µM | NCI-H226 11.4 µM | MDA-MB-435 1.75 µM | MDA-N 1.96 µM | Malme-3M 1.19 µM | OVCAR-3 4.59 µM

CSc1nc(Cl)c2c(n1)Sc1nc3ccccc3n1N=C2
inactive: BT-549 18.6 µM | A498 > 100 µM | CAKI-1 13.4 µM | 786-0 28.2 µM | A549 45.2 µM | NCI-H522 19 µM | U-251 55.6 µM | PC-3 22.3 µM | MDA-MB-231 23.9 µM | K562 21.3 µM | MOLT-4 21.7 µM | HOP-92 18.3 µM | SK-MEL-28 40.8 µM | NCI-H226 62.7 µM | MDA-MB-435 29.7 µM | MDA-N 22 µM | Malme-3M 25.8 µM | OVCAR-3 25.5 µM

O=C1C=CC2(C=C1)CCC(=O)O2
inactive: BT-549 18.5 µM | A498 36.3 µM | CAKI-1 5.87 µM | 786-0 15 µM | A549 20.6 µM | NCI-H522 2.34 µM | U-251 7.18 µM | EKVX 17.9 µM | SF-539 12.2 µM | PC-3 12.6 µM | MDA-MB-231 10.1 µM | K562 10.7 µM | MOLT-4 > 100 µM | HOP-92 11.1 µM | SK-MEL-28 16 µM | NCI-H226 19.2 µM | MDA-MB-435 15.5 µM | MDA-N 27.9 µM | Malme-3M 5.58 µM | OVCAR-3 13.2 µM

CCC1CC(C)C(O)/C=C/C=C/CC(C)OC(=O)CC(O)C(OC)C1OC1OC(C)CC(O)(C(C)=O)C1O (configuration not stated)
inactive: BT-549 40.6 µM | A498 77.4 µM | CAKI-1 13.1 µM | 786-0 > 100 µM | A549 > 100 µM | NCI-H522 13.3 µM | U-251 60.4 µM | EKVX 57.7 µM | SF-539 78.9 µM | PC-3 66.1 µM | MDA-MB-231 16 µM | MOLT-4 21.7 µM | HOP-92 > 100 µM | SK-MEL-28 > 100 µM | NCI-H226 47.6 µM | MDA-MB-435 > 100 µM | MDA-N 36.4 µM | Malme-3M 38.8 µM | OVCAR-3 20.3 µM

COc1ccc(/C=C2\N=C(c3ccccc3)N(NC3=NC(=O)CC(=O)N3)C2=O)cc1
inactive: BT-549 > 100 µM | A498 > 100 µM | CAKI-1 > 100 µM | 786-0 > 100 µM | A549 > 100 µM | NCI-H522 > 100 µM | U-251 > 100 µM | SF-539 > 100 µM | PC-3 > 100 µM | MDA-MB-231 > 100 µM | K562 > 100 µM | MOLT-4 > 100 µM | HOP-92 > 100 µM | SK-MEL-28 > 100 µM | NCI-H226 > 100 µM | MDA-MB-435 > 100 µM | MDA-N > 100 µM | Malme-3M > 100 µM | OVCAR-3 > 100 µM

Nc1ccc2ccc(-c3ccc[nH]3)nc2n1
inactive: BT-549 > 100 µM | A498 > 100 µM | CAKI-1 > 100 µM | 786-0 > 100 µM | A549 > 100 µM | NCI-H522 > 100 µM | U-251 > 100 µM | EKVX > 100 µM | SF-539 > 100 µM | PC-3 > 100 µM | MDA-MB-231 > 100 µM | HOP-92 > 100 µM | SK-MEL-28 > 100 µM | NCI-H226 > 100 µM | MDA-MB-435 > 100 µM | MDA-N > 100 µM | Malme-3M > 100 µM | OVCAR-3 > 100 µM

O=C1C=Cc2c(Br)sc(Br)c21
inactive: BT-549 27.3 µM | A498 > 100 µM | CAKI-1 19.6 µM | 786-0 34.9 µM | A549 55.1 µM | NCI-H522 26.1 µM | U-251 18.5 µM | EKVX 26.1 µM | SF-539 59.3 µM | PC-3 19.7 µM | MDA-MB-231 21.7 µM | K562 23 µM | MOLT-4 13.5 µM | HOP-92 24.7 µM | SK-MEL-28 28.8 µM | MDA-MB-435 19.1 µM | MDA-N 30.1 µM | Malme-3M 23.1 µM | OVCAR-3 15.8 µM

C/C(=N\C1CCCCC1)c1ccccc1O
inactive: BT-549 > 100 µM | A498 > 100 µM | CAKI-1 > 100 µM | 786-0 > 100 µM | A549 > 100 µM | NCI-H522 34.2 µM | U-251 > 100 µM | EKVX > 100 µM | SF-539 > 100 µM | PC-3 > 100 µM | MDA-MB-231 > 100 µM | K562 > 100 µM | MOLT-4 > 100 µM | HOP-92 > 100 µM | SK-MEL-28 > 100 µM | NCI-H226 > 100 µM | MDA-MB-435 > 100 µM | MDA-N > 100 µM | Malme-3M > 100 µM

CCCCCCCCCCCCCCCCNc1nc(=O)n(C2OC(C)C(O)C2O)cc1F (configuration not stated)
inactive: BT-549 19.7 µM | A498 19.5 µM | CAKI-1 21.1 µM | 786-0 19.9 µM | A549 23.1 µM | NCI-H522 18.7 µM | U-251 23.7 µM | EKVX 18.4 µM | SF-539 18.2 µM | PC-3 13.2 µM | MDA-MB-231 20.7 µM | MOLT-4 20.2 µM | HOP-92 22.9 µM | SK-MEL-28 19.2 µM | NCI-H226 21 µM | MDA-MB-435 15.5 µM | MDA-N 19.1 µM | Malme-3M 23.1 µM | OVCAR-3 17.5 µM

Cc1ccc(S(=O)(=O)Nn2c(S)c(C#N)c(-c3ccc([N+](=O)[O-])cc3)c(C#N)c2=O)cc1
inactive: BT-549 12.8 µM | A498 89.1 µM | CAKI-1 > 100 µM | 786-0 20 µM | A549 47.9 µM | NCI-H522 15.7 µM | U-251 29 µM | EKVX 32 µM | SF-539 16.7 µM | PC-3 27.2 µM | MDA-MB-231 17.7 µM | K562 21.2 µM | MOLT-4 17.3 µM | HOP-92 32.1 µM | SK-MEL-28 32.6 µM | NCI-H226 40.6 µM | MDA-MB-435 23.2 µM | MDA-N 26.1 µM | Malme-3M 61.5 µM

COc1cc2c(cc1OCCCCCN1C(=O)c3cccc4cccc(c34)C1=O)N=C[C@@H]1CCCN1C2=O
active: BT-549 0.244 µM | A498 0.31 µM | CAKI-1 0.208 µM | 786-0 0.249 µM | A549 0.535 µM | NCI-H522 0.0336 µM | U-251 0.249 µM | EKVX 0.492 µM | SF-539 0.0646 µM | PC-3 0.282 µM | MDA-MB-231 0.286 µM | K562 0.114 µM | MOLT-4 0.0743 µM | HOP-92 0.142 µM | SK-MEL-28 0.301 µM | NCI-H226 0.177 µM | MDA-MB-435 0.167 µM | MDA-N 0.207 µM | Malme-3M 0.163 µM | OVCAR-3 0.184 µM

CO[C@H]1[C@@H](O)[C@@H](C)O[C@@H](O[C@H]2CC[C@@]3(C)[C@H](CC[C@@H]4[C@@H]3CC[C@]3(C)[C@@H](C5=CC(=O)OC5)CC[C@]43O)C2)[C@@H]1O [ODOROSIDE H]
active: BT-549 0.00514 µM | A498 0.0787 µM | CAKI-1 0.0048 µM | 786-0 0.00453 µM | A549 0.00288 µM | NCI-H522 < 0.0025 µM | U-251 0.00836 µM | EKVX 0.00474 µM | SF-539 0.00468 µM | PC-3 0.00426 µM | MDA-MB-231 0.0413 µM | MOLT-4 < 0.0025 µM | HOP-92 0.0127 µM | SK-MEL-28 0.0394 µM | NCI-H226 0.0488 µM | MDA-MB-435 0.00908 µM | MDA-N 0.00767 µM | Malme-3M 0.00441 µM | OVCAR-3 0.00531 µM
